Assay results: the kinase profiling compilation of Christmann-Franck et al. (2016)

Experiments:
Assay in all cases: radiometric filter-binding kinase assay, Kinase HotSpot
Details in all cases: compound 0.5 µM; ATP 10 µM
WNK3 (human) = WNK3 (human) (UniProt Q9BYP7)
[1] = system: SGK1 (human), O00141 [S422D]
MAPK10 (human) = MAPK10 (human) (UniProt P53779)
BRSK2 (human) = BRSK2 (human) (UniProt Q8IWQ3)
AURKC (human) = AURKC (human) (UniProt Q9UQB9)
CSNK1G3 (human) = CSNK1G3 (human) (UniProt Q9Y6M4)
NTRK3 (human) = NTRK3 (human) (UniProt Q16288)
FGFR1 (human) = FGFR1 (human) (UniProt P11362)
STK4 (human) = STK4 (human) (UniProt Q13043)
BMX (human) = BMX (human) (UniProt P51813)
CDK1 CCNA2 (human) = CDK1 CCNA2 (human) (UniProt P06493+P20248)
GSK3A (human) = GSK3A (human) (UniProt P49840)
MAP2K2 (human) = MAP2K2 (human) (UniProt P36507)
EPHA1 (human) = EPHA1 (human) (UniProt P21709)
GSG2 (human) = GSG2 (human) (UniProt Q8TF76)
LIMK1 (human) = LIMK1 (human) (UniProt P53667)
STK3 (human) = STK3 (human) (UniProt Q13188)
SRPK2 (human) = SRPK2 (human) (UniProt P78362)
CSNK2A1 (human) = CSNK2A1 (human) (UniProt P68400)
FLT3 (human) = FLT3 (human) (UniProt P36888)
MAP4K5 (human) = MAP4K5 (human) (UniProt Q9Y4K4)
ITK (human) = ITK (human) (UniProt Q08881)
MAP2K1 (human) = MAP2K1 (human) (UniProt Q02750)
BLK (human) = BLK (human) (UniProt P51451)
NTRK2 (human) = NTRK2 (human) (UniProt Q16620)
DMPK (human) = DMPK (human) (UniProt Q09013)
CSNK2A2 (human) = CSNK2A2 (human) (UniProt P19784)
RPS6KA6 KD1 KD2 (human) = RPS6KA6 KD1 KD2 (human) (UniProt Q9UK32)
MARK1 (human) = MARK1 (human) (UniProt Q9P0L2)
CDK7 CCNH MNAT1 (human) = CDK7 CCNH MNAT1 (human) (UniProt P50613+P51948+P51946)
RPS6KA4 KD2 (human) = RPS6KA4 KD2 (human) (UniProt O75676)
INSR (human) = INSR (human) (UniProt P06213)
PHKG1 (human) = PHKG1 (human) (UniProt Q16816)
PRKACA (human) = PRKACA (human) (UniProt P17612)
DYRK3 (human) = DYRK3 (human) (UniProt O43781)
NEK2 (human) = NEK2 (human) (UniProt P51955)
PRKCE (human) = PRKCE (human) (UniProt Q02156)
TXK (human) = TXK (human) (UniProt P42681)
PTK2B (human) = PTK2B (human) (UniProt Q14289)
EPHA2 (human) = EPHA2 (human) (UniProt P29317)
CDK2 CCNE1 (human) = CDK2 CCNE1 (human) (UniProt P24941+P24864)
MAP3K9 (human) = MAP3K9 (human) (UniProt P80192)

Chain of LIMK1 (human) (P53667 whole entry, looked up): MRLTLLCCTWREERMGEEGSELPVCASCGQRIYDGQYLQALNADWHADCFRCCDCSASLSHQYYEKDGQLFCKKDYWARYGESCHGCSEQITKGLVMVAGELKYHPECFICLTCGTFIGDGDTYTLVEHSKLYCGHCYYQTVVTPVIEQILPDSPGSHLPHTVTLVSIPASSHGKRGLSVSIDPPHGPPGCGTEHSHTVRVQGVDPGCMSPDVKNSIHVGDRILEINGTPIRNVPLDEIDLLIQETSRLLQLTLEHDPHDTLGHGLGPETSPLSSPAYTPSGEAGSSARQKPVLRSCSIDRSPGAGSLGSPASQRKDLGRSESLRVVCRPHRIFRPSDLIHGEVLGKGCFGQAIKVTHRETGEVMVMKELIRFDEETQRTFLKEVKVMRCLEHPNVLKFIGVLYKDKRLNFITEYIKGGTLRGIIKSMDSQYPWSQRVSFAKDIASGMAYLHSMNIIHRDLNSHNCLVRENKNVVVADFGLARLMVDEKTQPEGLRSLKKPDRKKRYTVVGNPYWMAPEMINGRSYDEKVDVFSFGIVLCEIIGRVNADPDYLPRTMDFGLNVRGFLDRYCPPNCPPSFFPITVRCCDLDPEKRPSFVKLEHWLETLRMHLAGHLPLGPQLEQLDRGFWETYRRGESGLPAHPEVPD
Chain of MARK1 (human) (Q9P0L2 whole entry, looked up): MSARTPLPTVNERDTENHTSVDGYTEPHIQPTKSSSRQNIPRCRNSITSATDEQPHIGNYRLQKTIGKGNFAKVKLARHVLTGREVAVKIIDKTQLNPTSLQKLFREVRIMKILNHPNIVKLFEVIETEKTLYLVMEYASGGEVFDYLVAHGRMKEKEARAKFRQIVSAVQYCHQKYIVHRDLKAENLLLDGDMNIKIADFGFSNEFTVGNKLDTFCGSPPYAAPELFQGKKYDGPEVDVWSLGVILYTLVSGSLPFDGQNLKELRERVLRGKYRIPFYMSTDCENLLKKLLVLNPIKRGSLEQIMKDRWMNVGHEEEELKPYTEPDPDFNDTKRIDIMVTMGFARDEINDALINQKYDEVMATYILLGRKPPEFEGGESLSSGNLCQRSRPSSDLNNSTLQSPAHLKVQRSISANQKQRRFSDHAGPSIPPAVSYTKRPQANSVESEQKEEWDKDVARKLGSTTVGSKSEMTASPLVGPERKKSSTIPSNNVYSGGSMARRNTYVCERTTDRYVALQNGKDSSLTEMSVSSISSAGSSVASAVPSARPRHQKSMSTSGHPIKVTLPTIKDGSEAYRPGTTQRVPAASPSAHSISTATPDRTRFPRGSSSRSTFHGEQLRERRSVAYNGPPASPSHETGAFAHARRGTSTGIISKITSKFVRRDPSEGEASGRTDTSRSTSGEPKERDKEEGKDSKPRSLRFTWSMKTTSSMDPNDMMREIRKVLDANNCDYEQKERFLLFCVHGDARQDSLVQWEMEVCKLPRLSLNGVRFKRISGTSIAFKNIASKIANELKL
Chain of GSG2 (human) (Q8TF76 whole entry, looked up): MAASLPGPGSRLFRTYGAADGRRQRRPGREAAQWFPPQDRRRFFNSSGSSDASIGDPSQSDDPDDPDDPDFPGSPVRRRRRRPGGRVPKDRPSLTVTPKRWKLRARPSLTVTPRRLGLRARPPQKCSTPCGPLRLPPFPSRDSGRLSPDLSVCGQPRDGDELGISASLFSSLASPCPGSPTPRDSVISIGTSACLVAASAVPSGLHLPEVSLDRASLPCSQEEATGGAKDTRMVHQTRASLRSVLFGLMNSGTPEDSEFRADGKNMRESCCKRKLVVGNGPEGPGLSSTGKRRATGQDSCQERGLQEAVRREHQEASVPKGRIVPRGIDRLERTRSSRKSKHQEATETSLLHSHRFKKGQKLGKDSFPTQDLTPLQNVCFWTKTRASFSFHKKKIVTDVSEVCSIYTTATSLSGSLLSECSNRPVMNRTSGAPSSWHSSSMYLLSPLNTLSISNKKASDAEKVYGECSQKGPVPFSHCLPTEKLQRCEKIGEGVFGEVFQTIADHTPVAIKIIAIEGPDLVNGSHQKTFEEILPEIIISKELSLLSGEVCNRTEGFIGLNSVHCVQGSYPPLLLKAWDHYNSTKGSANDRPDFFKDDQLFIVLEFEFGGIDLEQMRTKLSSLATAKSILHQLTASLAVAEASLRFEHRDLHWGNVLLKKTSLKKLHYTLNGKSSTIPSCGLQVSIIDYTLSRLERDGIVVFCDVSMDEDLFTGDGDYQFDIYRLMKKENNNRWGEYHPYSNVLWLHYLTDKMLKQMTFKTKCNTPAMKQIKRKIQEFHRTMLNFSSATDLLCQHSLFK
Chain of NEK2 (human) (P51955 whole entry, looked up): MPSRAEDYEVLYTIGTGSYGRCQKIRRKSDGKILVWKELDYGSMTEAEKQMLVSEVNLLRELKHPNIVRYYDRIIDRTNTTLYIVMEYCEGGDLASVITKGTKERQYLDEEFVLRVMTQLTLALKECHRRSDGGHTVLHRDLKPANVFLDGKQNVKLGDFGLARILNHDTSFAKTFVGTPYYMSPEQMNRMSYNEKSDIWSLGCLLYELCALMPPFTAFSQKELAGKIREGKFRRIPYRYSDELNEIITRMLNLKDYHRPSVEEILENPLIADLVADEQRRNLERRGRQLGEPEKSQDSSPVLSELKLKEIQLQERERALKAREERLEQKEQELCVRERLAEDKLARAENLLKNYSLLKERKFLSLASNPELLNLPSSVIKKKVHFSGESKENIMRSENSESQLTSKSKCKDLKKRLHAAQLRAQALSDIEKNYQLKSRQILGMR
Chain of CSNK2A1 (human) (P68400 whole entry, looked up): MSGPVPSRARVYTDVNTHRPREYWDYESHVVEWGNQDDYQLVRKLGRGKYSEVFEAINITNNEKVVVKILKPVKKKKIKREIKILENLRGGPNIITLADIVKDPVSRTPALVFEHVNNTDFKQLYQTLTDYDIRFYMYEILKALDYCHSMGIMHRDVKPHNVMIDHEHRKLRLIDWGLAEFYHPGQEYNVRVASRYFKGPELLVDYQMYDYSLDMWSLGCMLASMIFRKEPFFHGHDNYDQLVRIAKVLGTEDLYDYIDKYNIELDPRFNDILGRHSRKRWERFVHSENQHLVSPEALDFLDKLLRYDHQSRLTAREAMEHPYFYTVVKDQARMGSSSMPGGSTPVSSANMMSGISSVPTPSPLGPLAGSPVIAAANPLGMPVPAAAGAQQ
Chain of MAP2K2 (human) (P36507 whole entry, looked up): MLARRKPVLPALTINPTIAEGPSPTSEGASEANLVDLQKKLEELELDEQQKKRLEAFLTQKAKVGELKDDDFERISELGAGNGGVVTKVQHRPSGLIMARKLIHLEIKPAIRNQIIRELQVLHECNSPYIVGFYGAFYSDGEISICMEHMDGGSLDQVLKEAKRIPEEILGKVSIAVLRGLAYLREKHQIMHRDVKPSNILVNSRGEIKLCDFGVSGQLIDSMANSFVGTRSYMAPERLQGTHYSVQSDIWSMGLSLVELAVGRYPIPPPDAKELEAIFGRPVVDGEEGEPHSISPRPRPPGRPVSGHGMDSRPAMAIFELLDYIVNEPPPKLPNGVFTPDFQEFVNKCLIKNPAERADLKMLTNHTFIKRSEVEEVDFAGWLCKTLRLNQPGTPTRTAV
Chain of SRPK2 (human) (P78362 whole entry, looked up): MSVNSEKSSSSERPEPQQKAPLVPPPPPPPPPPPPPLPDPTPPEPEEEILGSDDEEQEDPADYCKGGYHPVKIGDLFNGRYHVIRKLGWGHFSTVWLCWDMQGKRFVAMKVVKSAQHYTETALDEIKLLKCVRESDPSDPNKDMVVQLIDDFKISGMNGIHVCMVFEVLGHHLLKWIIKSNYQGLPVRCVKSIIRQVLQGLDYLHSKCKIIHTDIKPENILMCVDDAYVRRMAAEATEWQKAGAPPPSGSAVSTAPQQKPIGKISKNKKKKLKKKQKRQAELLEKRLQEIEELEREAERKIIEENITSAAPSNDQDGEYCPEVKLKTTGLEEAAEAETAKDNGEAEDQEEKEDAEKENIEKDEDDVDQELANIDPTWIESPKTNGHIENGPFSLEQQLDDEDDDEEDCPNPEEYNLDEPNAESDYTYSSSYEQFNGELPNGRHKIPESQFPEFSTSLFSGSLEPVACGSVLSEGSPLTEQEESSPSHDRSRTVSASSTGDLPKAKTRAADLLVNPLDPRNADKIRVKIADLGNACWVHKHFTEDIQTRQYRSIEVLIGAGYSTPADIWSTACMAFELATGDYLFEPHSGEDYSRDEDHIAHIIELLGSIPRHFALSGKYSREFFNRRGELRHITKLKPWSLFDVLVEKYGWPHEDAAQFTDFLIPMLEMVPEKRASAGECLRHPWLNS
Chain of FGFR1 (human) (P11362 whole entry, looked up): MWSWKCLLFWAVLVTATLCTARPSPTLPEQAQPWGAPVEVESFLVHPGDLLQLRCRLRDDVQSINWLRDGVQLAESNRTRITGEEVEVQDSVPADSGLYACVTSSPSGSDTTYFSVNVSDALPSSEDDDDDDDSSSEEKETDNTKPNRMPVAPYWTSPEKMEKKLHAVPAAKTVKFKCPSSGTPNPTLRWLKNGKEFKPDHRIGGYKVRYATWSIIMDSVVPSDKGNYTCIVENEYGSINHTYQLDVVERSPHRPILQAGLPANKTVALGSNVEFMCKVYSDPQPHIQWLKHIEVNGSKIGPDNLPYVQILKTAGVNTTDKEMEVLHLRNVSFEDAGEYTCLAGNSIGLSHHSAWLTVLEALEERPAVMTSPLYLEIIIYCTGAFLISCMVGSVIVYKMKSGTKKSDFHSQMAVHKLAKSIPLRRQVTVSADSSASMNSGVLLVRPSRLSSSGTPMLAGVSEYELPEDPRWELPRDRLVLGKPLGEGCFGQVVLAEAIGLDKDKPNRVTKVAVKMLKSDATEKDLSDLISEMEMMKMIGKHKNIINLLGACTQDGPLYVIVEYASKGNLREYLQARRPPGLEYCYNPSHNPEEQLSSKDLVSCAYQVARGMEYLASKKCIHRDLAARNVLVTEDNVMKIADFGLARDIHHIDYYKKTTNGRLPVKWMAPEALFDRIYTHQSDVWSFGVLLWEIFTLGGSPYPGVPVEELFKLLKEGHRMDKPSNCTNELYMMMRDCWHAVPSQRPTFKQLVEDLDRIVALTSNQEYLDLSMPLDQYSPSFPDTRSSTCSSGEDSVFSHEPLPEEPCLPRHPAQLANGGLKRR

SMILES: N/C(=N\N=C/c1ccc(-c2cccc([N+](=O)[O-])c2)o1)N[N+](=O)[O-]
- residual activity (WNK3 (human)): 96.6%
- residual activity [1]: 92.4%
- residual activity (MAPK10 (human)): 87%
- residual activity (BRSK2 (human)): 106%
- residual activity (AURKC (human)): 90.5%
- residual activity (CSNK1G3 (human)): 86.2%
- residual activity (NTRK3 (human)): 104%
- residual activity (FGFR1 (human)): 97.6%
- residual activity (STK4 (human)): 96.5%
- residual activity (BMX (human)): 90.1%
- residual activity (CDK1 CCNA2 (human)): 100%
- residual activity (GSK3A (human)): 108%
- residual activity (MAP2K2 (human)): 78.2%
- residual activity (EPHA1 (human)): 88.9%
- residual activity (GSG2 (human)): 89.1%
- residual activity (LIMK1 (human)): 99.7%
- residual activity (STK3 (human)): 100%
- residual activity (SRPK2 (human)): 101%
- residual activity (CSNK2A1 (human)): 91%
- residual activity (FLT3 (human)): 99.3%
- residual activity (MAP4K5 (human)): 109%
- residual activity (ITK (human)): 99.5%
- residual activity (MAP2K1 (human)): 105%
- residual activity (BLK (human)): 102%
- residual activity (NTRK2 (human)): 82.4%
- residual activity (DMPK (human)): 102%
- residual activity (CSNK2A2 (human)): 107%
- residual activity (RPS6KA6 KD1 KD2 (human)): 96.9%
- residual activity (MARK1 (human)): 90.7%
- residual activity (CDK7 CCNH MNAT1 (human)): 100%
- residual activity (RPS6KA4 KD2 (human)): 98.9%
- residual activity (INSR (human)): 92%
- residual activity (PHKG1 (human)): 101%
- residual activity (PRKACA (human)): 93.3%
- residual activity (DYRK3 (human)): 102%
- residual activity (NEK2 (human)): 88.9%
- residual activity (PRKCE (human)): 90.5%
- residual activity (TXK (human)): 98.3%
- residual activity (PTK2B (human)): 91.5%

SMILES: O=c1c(-c2ccc(F)cc2)c(-c2ccncc2)[nH]n1-c1ccc(Cl)cc1
- residual activity (WNK3 (human)): 93.6%
- residual activity [1]: 97.3%
- residual activity (MAPK10 (human)): 97.1%
- residual activity (BRSK2 (human)): 90.8%
- residual activity (AURKC (human)): 100%
- residual activity (CSNK1G3 (human)): 102%
- residual activity (NTRK3 (human)): 99.2%
- residual activity (FGFR1 (human)): 93.7%
- residual activity (STK4 (human)): 90%
- residual activity (BMX (human)): 95.8%
- residual activity (CDK1 CCNA2 (human)): 83.1%
- residual activity (EPHA2 (human)): 101%
- residual activity (GSK3A (human)): 93.3%
- residual activity (MAP2K2 (human)): 82.5%
- residual activity (EPHA1 (human)): 93.1%
- residual activity (GSG2 (human)): 96.5%
- residual activity (LIMK1 (human)): 91.5%
- residual activity (CDK2 CCNE1 (human)): 89.1%
- residual activity (STK3 (human)): 88.3%
- residual activity (SRPK2 (human)): 94.4%
- residual activity (CSNK2A1 (human)): 95.3%
- residual activity (FLT3 (human)): 92.8%
- residual activity (MAP4K5 (human)): 83.1%
- residual activity (ITK (human)): 79.7%
- residual activity (MAP2K1 (human)): 70.1%
- residual activity (BLK (human)): 91.6%
- residual activity (NTRK2 (human)): 88.5%
- residual activity (DMPK (human)): 87.6%
- residual activity (RPS6KA6 KD1 KD2 (human)): 90.3%
- residual activity (MARK1 (human)): 94.5%
- residual activity (CDK7 CCNH MNAT1 (human)): 97.4%
- residual activity (RPS6KA4 KD2 (human)): 103%
- residual activity (INSR (human)): 110%
- residual activity (PHKG1 (human)): 94.1%
- residual activity (PRKACA (human)): 90.7%
- residual activity (DYRK3 (human)): 82.7%
- residual activity (NEK2 (human)): 85.4%
- residual activity (PRKCE (human)): 96.7%
- residual activity (TXK (human)): 94.4%
- residual activity (MAP3K9 (human)): 103%
- residual activity (PTK2B (human)): 91.7%

SMILES: O=c1cc(N2CCOCC2)oc2c(-c3ccccc3)cccc12
- residual activity (WNK3 (human)): 89.2%
- residual activity [1]: 101%
- residual activity (MAPK10 (human)): 87.1%
- residual activity (BRSK2 (human)): 96.2%
- residual activity (AURKC (human)): 97%
- residual activity (CSNK1G3 (human)): 92.4%
- residual activity (NTRK3 (human)): 95.9%
- residual activity (FGFR1 (human)): 96.6%
- residual activity (STK4 (human)): 87.8%
- residual activity (BMX (human)): 96.9%
- residual activity (CDK1 CCNA2 (human)): 92%
- residual activity (EPHA2 (human)): 104%
- residual activity (GSK3A (human)): 93.5%
- residual activity (MAP2K2 (human)): 96.8%
- residual activity (EPHA1 (human)): 101%
- residual activity (GSG2 (human)): 93.4%
- residual activity (LIMK1 (human)): 98.6%
- residual activity (CDK2 CCNE1 (human)): 93%
- residual activity (SRPK2 (human)): 98.2%
- residual activity (CSNK2A1 (human)): 64.8%
- residual activity (FLT3 (human)): 95.6%
- residual activity (MAP4K5 (human)): 92.2%
- residual activity (ITK (human)): 93.3%
- residual activity (MAP2K1 (human)): 88.8%
- residual activity (BLK (human)): 120%
- residual activity (NTRK2 (human)): 112%
- residual activity (DMPK (human)): 99.4%
- residual activity (CSNK2A2 (human)): 93.9%
- residual activity (MARK1 (human)): 100%
- residual activity (CDK7 CCNH MNAT1 (human)): 95.4%
- residual activity (RPS6KA4 KD2 (human)): 111%
- residual activity (INSR (human)): 104%
- residual activity (PHKG1 (human)): 90.1%
- residual activity (PRKACA (human)): 98.3%
- residual activity (DYRK3 (human)): 100%
- residual activity (NEK2 (human)): 89.8%
- residual activity (PRKCE (human)): 102%
- residual activity (TXK (human)): 93.6%
- residual activity (MAP3K9 (human)): 108%
- residual activity (PTK2B (human)): 107%
